Test results taken from patent US11786527B2, “Pharmaceutical composition and preparation method therefor and uses thereof” (WUXI SHUANGLIANG BIOTECHNOLOGY CO., LTD., priority 2018, dated 2023).

Assays:
[1] = Solubility and solution stability of C-005 and its salts; type: physicochemical
[2] = target: WT EGFR (Homo sapiens, UniProt P00533); conditions: cited from earlier work
[3] = test system: activated form and resistant mutant form of EGFR; conditions: cited from earlier work

Sequence of WT EGFR (P00533 25-1210): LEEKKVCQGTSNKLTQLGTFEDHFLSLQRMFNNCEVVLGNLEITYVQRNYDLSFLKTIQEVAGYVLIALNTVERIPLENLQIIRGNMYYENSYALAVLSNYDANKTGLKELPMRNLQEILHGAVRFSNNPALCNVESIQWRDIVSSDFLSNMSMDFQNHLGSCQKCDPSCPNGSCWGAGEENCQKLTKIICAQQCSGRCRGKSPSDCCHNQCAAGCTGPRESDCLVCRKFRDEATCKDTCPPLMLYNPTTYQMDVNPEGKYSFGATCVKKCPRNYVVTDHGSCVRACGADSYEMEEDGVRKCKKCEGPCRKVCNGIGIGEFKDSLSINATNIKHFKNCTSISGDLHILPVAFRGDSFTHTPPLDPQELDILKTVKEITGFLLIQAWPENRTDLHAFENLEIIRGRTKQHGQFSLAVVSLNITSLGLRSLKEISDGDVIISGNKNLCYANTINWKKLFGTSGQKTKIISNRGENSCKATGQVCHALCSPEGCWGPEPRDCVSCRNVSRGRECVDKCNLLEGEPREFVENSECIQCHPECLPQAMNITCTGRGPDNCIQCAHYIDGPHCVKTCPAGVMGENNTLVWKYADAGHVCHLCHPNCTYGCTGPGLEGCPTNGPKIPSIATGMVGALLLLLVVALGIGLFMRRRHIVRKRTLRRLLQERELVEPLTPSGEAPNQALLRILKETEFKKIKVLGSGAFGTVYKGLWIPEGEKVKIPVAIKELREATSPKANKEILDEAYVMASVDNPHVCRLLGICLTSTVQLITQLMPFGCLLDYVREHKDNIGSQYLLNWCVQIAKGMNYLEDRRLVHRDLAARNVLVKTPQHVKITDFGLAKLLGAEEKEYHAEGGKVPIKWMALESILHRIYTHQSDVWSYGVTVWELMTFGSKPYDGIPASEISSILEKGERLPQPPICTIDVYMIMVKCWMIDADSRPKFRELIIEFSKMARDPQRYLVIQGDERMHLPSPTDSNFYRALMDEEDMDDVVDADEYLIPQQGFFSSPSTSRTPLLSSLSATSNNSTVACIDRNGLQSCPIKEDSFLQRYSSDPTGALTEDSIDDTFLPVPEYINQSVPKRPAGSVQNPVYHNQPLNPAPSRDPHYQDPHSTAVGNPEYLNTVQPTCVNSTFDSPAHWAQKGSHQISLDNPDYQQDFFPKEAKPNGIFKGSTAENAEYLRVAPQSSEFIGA

Time period for which the solution is stable and does not precipitate ([1]; solution of the citrate, once formed) | Solubility compared with C-005 in the free-base form ([1]; under the pH conditions in intestine) | Solubility in simulated gastric fluid compared to the solubility in aqueous solution ([1]; simulated gastric fluid (pH 1.2) vs aqueous solution (pH 7)) | SMILES | Inhibitory activity against WT EGFR [2] | Inhibition of activated form and resistant mutant form of EGFR [3] | pH dependence of solubility (and permeability) [1]
at least 24 hours | significantly higher | – | C=CC(=O)Nc1cc(Nc2nccc(-c3cn(C)c4cccnc34)n2)c(OC)cc1N(C)CCN(C)C.O=C(O)CC(O)(CC(=O)O)C(=O)O [C-005 citrate, N-(2-((2-(dimethylamino)ethyl)(methyl)amino)-4-methoxy-5-((4-(1-methyl-1H-pyrrolo[3,2-b]pyridin-3-yl)pyrimidin-2-yl)amino)phenyl)acrylamide citrate] | – | – | –
– | – | approximately 40 times | C=CC(=O)Nc1cc(Nc2nccc(-c3cn(C)c4cccnc34)n2)c(OC)cc1N(C)CCN(C)C [C-005, N-(2-((2-(dimethylamino)ethyl)(methyl)amino)-4-methoxy-5-((4-(1-methyl-1H-pyrrolo[3,2-b]pyridin-3-yl)pyrimidin-2-yl)amino)phenyl)acrylamide] | relatively low inhibitory activity | inhibit both activated form and resistant mutant form of EGFR | significant pH-dependent solubility and permeability
